Results reported in the supplement of paper PMC13380429.

How the values were obtained:
Conditions in all cases: 72 h
[1] = system: Calu-3; assay: relative viability EC50 (midpoint between 100% and the lowest measured viability); higher = less toxic
[2] = system: Caco-2; assay: as above
[3] = system: Vero E6; assay: as above
[4] = system: U2OS; assay: as above
[5] = system: HepG2; assay: as above
[6] = system: Calu-3; assay: cell viability relative to DMSO; higher = less toxic
[7] = system: Caco-2; assay: as above
[8] = system: Vero E6; assay: as above
[9] = system: U2OS; assay: as above
[10] = system: HepG2; assay: as above
[11] = system: Calu-3; assay: drug sensitivity score (DSS) for viability; higher = more toxic; extreme values may be limits of the assay
[12] = system: Caco-2; assay: as above
[13] = system: Vero E6; assay: as above
[14] = system: U2OS; assay: as above
[15] = system: HepG2; assay: as above

Compound	relative viability EC50 [1]	relative viability EC50 [2]	relative viability EC50 [3]	relative viability EC50 [4]	relative viability EC50 [5]	cell viability ([6]; 1 nM)	cell viability ([6]; 10 nM)	cell viability ([6]; 100 nM)	cell viability ([6]; 1000 nM)	cell viability ([6]; 10000 nM)	cell viability ([7]; 1 nM)	cell viability ([7]; 10 nM)	cell viability ([7]; 100 nM)	cell viability ([7]; 1000 nM)	cell viability ([7]; 10000 nM)	cell viability ([8]; 1 nM)	cell viability ([8]; 10 nM)	cell viability ([8]; 100 nM)	cell viability ([8]; 1000 nM)	cell viability ([8]; 10000 nM)	cell viability ([9]; 1 nM)	cell viability ([9]; 10 nM)	cell viability ([9]; 100 nM)	cell viability ([9]; 1000 nM)	cell viability ([9]; 10000 nM)	cell viability ([10]; 1 nM)	cell viability ([10]; 10 nM)	cell viability ([10]; 100 nM)	cell viability ([10]; 1000 nM)	cell viability ([10]; 10000 nM)	drug sensitivity score [11]	drug sensitivity score [12]	drug sensitivity score [13]	drug sensitivity score [14]	drug sensitivity score [15]
CCCOCCn1c(=O)c(N2CCN(CCO)CC2)nc2cnc(-c3ccc(OC)nc3)cc21	> 10 µM	> 10 µM	> 10 µM	> 10 µM	> 10 µM	99.5%	88.8%	98.9%	94.2%	104%	102%	92.3%	94.4%	86.8%	93.6%	109%	107%	100%	107%	92.8%	95.5%	97.4%	103%	95.5%	99.8%	109%	105%	98.8%	104%	87.1%	0	0.1	0	0	0
CCNC(=O)c1n[nH]c(-c2cc(Cl)c(O)cc2O)c1-c1ccc(OC)cc1	1.61 µM	1.58 µM	1.29 µM	1.64 µM	0.714 µM	99.8%	88.5%	96.1%	85.8%	39.2%	95.3%	101%	94.4%	83.8%	32.7%	100%	95.7%	100%	78.5%	37.8%	93.7%	99.1%	99.5%	78.7%	4.7%	104%	94.2%	105%	31.3%	2%	5.6	6.2	6.5	8.6	13.3
COC(=O)C(Cc1ccc(OCCn2c(=O)sc3cc(C(=O)c4ccccc4)ccc32)cc1)C(=O)OC	> 10 µM	> 10 µM	> 10 µM	> 10 µM	> 10 µM	94.4%	109%	97.7%	104%	118%	100%	93%	101%	109%	101%	93.7%	96.7%	89.2%	81.6%	85.5%	100%	95.1%	95.6%	106%	105%	95.5%	101%	98.7%	95.1%	102%	0	0	2.1	0	0
C[C@@H]1CN(Cc2ncccn2)C[C@H]1c1nc2c(cnn2C2CCOCC2)c(=O)[nH]1	> 10 µM	> 10 µM	> 10 µM	> 10 µM	> 10 µM	98.5%	100%	105%	111%	93.7%	94.4%	92.4%	96%	94.7%	107%	93.6%	97.7%	93.7%	96%	103%	98.2%	102%	102%	103%	99.9%	99.2%	94%	100%	96.5%	107%	0	0	0	0	0
Cc1ccc(-c2n[nH]c3c2C(c2cccc(O)c2)N(c2ccc(C(=O)O)cc2)C3=O)cc1 (stereo not given)	> 10 µM	> 10 µM	> 10 µM	> 10 µM	> 10 µM	92%	105%	98.6%	99.9%	88.2%	93.4%	99.2%	87%	100%	100%	102%	104%	101%	95.8%	101%	90.5%	96.2%	99.1%	99.7%	98.1%	111%	101%	114%	93.4%	103%	0	0	0	0	0
Cn1c2c(c3ccccc31)CCNCC2	> 10 µM	> 10 µM	> 10 µM	> 10 µM	> 10 µM	96.7%	101%	99.3%	103%	96.8%	109%	98.6%	102%	97.9%	97.1%	102%	103%	104%	108%	99.6%	100%	94.4%	98.3%	95.9%	104%	93%	98.3%	93.1%	103%	98.4%	0	0	0	0	0
Cn1cc(C(=O)C(=O)N[C@H]2CN3CCC2CC3)c2ccccc21	> 10 µM	> 10 µM	> 10 µM	> 10 µM	> 10 µM	99.9%	102%	98.9%	100%	94.5%	95.7%	99.6%	104%	99.9%	110%	112%	114%	105%	97.9%	98.5%	96.8%	107%	99.2%	101%	96.1%	108%	94.2%	114%	95.3%	96.9%	0	0	0	0	0
N#Cc1cc(CN2CCC(Nc3ncnc4sc(Cl)cc34)CC2)ccc1F	> 10 µM	> 10 µM	> 10 µM	> 10 µM	1.4 µM	104%	106%	103%	97.7%	87.7%	98%	98.7%	91.2%	98.8%	79.7%	102%	98.1%	103%	102%	93.4%	96.9%	98.6%	96.3%	103%	89.1%	97.6%	97.3%	107%	78.6%	29.1%	0.2	0.8	0	0	7.1
Clc1ccc(C(c2ccc(Cl)cc2)C(Cl)(Cl)Cl)cc1 [4,4'-DDT]	> 10 µM	> 10 µM	> 10 µM	> 10 µM	> 10 µM	99.1%	110%	93%	105%	95.6%	99.1%	102%	105%	95.2%	97.8%	103%	105%	105%	102%	99.9%	103%	101%	100%	97.3%	106%	98.5%	104%	97.5%	95.8%	98.2%	0	0	0	0	0
Cc1[nH]c2ccc(F)cc2c1-c1nc2c3cccnc3c3ncccc3c2[nH]1 [APTO-253]	0.639 µM	> 10 µM	> 10 µM	1.47 µM	2.07 µM	111%	93.9%	95.2%	36.6%	5.3%	95.9%	100%	94.7%	88.3%	90.3%	96.2%	94.6%	94%	95.9%	86.9%	96.7%	96.6%	97.9%	80.1%	27.4%	93.2%	97.2%	96.7%	92.1%	42%	13	0.6	0	7	4.5
NC1=N[C@@](c2cccc(-c3cncnc3)c2)(c2ccnc(C(F)F)c2)c2cccc(F)c21 [AZD3839]	> 10 µM	> 10 µM	> 10 µM	> 10 µM	> 10 µM	102%	98.4%	99.7%	98.7%	109%	107%	102%	101%	96.1%	97%	110%	106%	99.9%	102%	104%	95.4%	99%	106%	97.9%	94.5%	108%	103%	106%	118%	97.3%	0	0	0	0	0
CC(=O)N(O)C/C=C/c1cccc(Oc2ccccc2)c1 [BW-A4C]	> 10 µM	> 10 µM	> 10 µM	> 10 µM	> 10 µM	89.6%	105%	97.8%	114%	112%	92.5%	103%	115%	92.9%	102%	107%	86.1%	109%	95.2%	102%	95.4%	95.5%	94.6%	98.6%	81.8%	95.6%	99.4%	104%	84.5%	92.9%	0	0	0	0.6	1.4
C=CC(=O)Nc1cccc(Nc2nc(Nc3ccc(NC4CN(CCF)C4)cc3OC)ncc2C(F)(F)F)c1 [CNX-2006]	0.464 µM	1.51 µM	1.97 µM	2.21 µM	3.34 µM	96.2%	99.4%	77.9%	44.4%	10%	105%	100%	99.1%	83.7%	38.3%	102%	102%	101%	88.7%	26.7%	102%	98.7%	98.8%	92.7%	37.2%	99.9%	110%	97.3%	102%	27.6%	13.3	5.9	5.9	4.7	3.8
Nc1nc(Nc2ccccc2)nc2c1ncn2[C@@H]1O[C@H](CO)[C@@H](O)[C@H]1O [CV-1808]	> 10 µM	> 10 µM	> 10 µM	> 10 µM	> 10 µM	101%	106%	93%	110%	106%	98.9%	93%	101%	105%	99.3%	94%	93%	94.5%	96.3%	97.2%	103%	100%	98.5%	106%	105%	95.4%	94.2%	109%	98.8%	94.9%	0	0	0	0	0
